The experiment deals with T1, SLMO (Slowmo); MBP-SLMO (Drosophila melanogaster, UniProt Q9V3U9).
T1 construct: N-terminal MBP fusion from pMAL-c6T (BamHI/EcoRI), E. coli BL21(DE3), Ni-NTA purified; tag kept
T1 sequence (Q9V3U9 1-215): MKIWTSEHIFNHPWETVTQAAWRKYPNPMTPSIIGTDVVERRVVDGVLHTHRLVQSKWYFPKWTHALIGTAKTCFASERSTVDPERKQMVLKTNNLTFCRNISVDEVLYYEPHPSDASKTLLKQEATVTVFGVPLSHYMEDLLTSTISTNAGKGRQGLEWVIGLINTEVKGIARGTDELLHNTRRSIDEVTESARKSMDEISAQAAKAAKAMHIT
The experiment in a line: liposome lipid transfer assay, NBD dequenching. The following applies: labelled compound, donor liposomes PC:PE:Rhod-PE:NBD-PS 56:40:3:1, acceptor PC:PE:CL 55:40:5, no chemical conversion. The experiment is classed as biochemical.

Regarding `CCCCCCCC/C=C\CCCCCCCC(=O)OC[C@H](COP(=O)(O)OC[C@H](N)C(=O)O)OC(=O)CCCCCCCCCCCNc1ccc([N+](=O)[O-])c2nonc12` [NBD-PS], the “liposome lipid transfer assay, NBD dequenching” value is “SLMO efficiently transported PS but not PE between liposomes in vitro”.

The values above are taken from paper PMC11649117, “SLMO transfers phosphatidylserine between the outer and inner mitochondrial membrane in Drosophila” (PLOS Biology, 2024).
